# Source: PMC8510595, “Vanillin enones as selective inhibitors of the cancer associated carbonic anhydrase isoforms IX and XII. The out of the active site pocket for the design of selective inhibitors?” (Journal of Enzyme Inhibition and Medicinal Chemistry, 2021)
# Where two headings read alike, the source gives them in different places.
# Assays:
# Assay in all cases: stopped-flow CO2 hydration assay
# Assay type in all cases: biochemical
# hCA IX = molecular target: T1, hCA IX (Homo sapiens, UniProt Q16790); details: read-out: Ki (μM)^b / hCA IX
# T1 construct: gene CA9; recombinant, obtained in the authors' laboratory; transmembrane isoform
# hCA I = molecular target: T2, hCA I (Homo sapiens, UniProt P00915); details: read-out: Ki (μM)^b / hCA I
# T2 construct: gene CA1; recombinant, obtained in the authors' laboratory; cytosolic
# hCA II = molecular target: T3, hCA II (Homo sapiens, UniProt P00918)
# T3 construct: gene CA2; recombinant, obtained in the authors' laboratory; cytosolic
# hCA XII = molecular target: T4, hCA XII (Homo sapiens, UniProt O43570); details: read-out: Ki (μM)^b / hCA XII
# T4 construct: gene CA12; recombinant, obtained in the authors' laboratory; transmembrane isoform
# T4 sequence (O43570 25-354 limits assumed): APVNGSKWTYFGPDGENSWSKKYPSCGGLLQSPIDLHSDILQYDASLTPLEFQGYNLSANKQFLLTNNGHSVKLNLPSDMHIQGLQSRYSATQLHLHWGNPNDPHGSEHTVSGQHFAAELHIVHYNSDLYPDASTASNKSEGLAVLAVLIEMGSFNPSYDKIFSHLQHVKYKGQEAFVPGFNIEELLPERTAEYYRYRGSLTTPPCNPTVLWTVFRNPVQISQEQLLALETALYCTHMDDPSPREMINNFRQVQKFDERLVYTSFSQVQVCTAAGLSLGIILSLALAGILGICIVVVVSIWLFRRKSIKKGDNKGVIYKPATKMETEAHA
# T2 sequence (P00915 2-261): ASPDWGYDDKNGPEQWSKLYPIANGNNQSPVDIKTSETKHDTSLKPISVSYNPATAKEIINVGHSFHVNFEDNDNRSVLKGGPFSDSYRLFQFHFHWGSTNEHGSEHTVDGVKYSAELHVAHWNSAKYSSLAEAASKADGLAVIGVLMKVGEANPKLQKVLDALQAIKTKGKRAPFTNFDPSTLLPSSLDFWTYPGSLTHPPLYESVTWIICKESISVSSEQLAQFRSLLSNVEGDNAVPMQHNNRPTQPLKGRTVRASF
Ki (hCA IX) [µM],Ki (hCA I) [µM],Ki (hCA II; read-out: Ki (μM)^b / hCA II) [µM],Ki (hCA XII) [µM],Ki (hCA II; read-out: Ki (μM)^b / hCA I) [µM],SMILES
30.8,71.6,> 100,4.8,,"COc1cc(/C=C/C(=O)C[C@@H]2O[C@H](CO)[C@@H](O)[C@H](O)[C@H]2O)ccc1O [compound 1, 1-(β-D-glucopyranosyl)-4–(4-hydroxy-3-methoxyphenyl)but-3-en-2-one]"
20.8,80.5,> 100,2.5,,"COc1cc(/C=C/C(=O)C[C@@H]2O[C@H](CO)[C@H](O)[C@H](O)[C@H]2O)ccc1O [compound 2, 1-(β-D-galactopyranosyl)-4–(4-hydroxy-3-methoxyphenyl)but-3-en-2-one]"
32,> 100,,2.5,> 100,"CCC(=O)/C=C/c1ccc(O)c(OC)c1 [compound 4, (E)-1–(4-Hydroxy-3-methoxyphenyl)pent-1-en-3-one]"
26.3,> 100,,1.7,> 100,"COc1cc(/C=C/C(=O)CC(C)C)ccc1O [compound 5, (E)-1–(4-Hydroxy-3-methoxyphenyl)-5-methylhex-1-en-3-one]"
29.1,76.3,96.4,0.63,,"COc1cc(/C=C/C(=O)c2ccccc2)ccc1O [compound 6, (E)-3–(4-Hydroxy-3-methoxyphenyl)-1-phenylprop-2-en-1-one]"
> 100,92.6,82,6.4,,"COc1cc(/C=C/C(=O)c2ccc(Br)cc2)ccc1O [compound 7, (E)-1–(4-Bromophenyl)-3–(4-hydroxy-3-methoxyphenyl)prop-2-en-1-one]"
